Earlier results in patent US10858388B2, “Selective progesterone receptor modulator (SPRM) regimen” (BAYER PHARMA AKTIENGESELLSCHAFT, priority 2015, dated 2020).

Assays:
fibroids = conditions: in vivo; cited from earlier work
[1] = tested on: women with excessive uterine bleeding due to the presence of fibroids; conditions: 5 mg Ulipristal Acetate, cited from earlier work
endometrium = conditions: relatively low concentration, WO2009/134178; cited from earlier work

CC#C[C@]1(O)CC[C@H]2[C@@H]3CCC4=CC(=O)CCC4=C3[C@@H](c3ccc(N(C)C)cc3)C[C@@]21C [mifepristone]
Size of fibroids and related symptoms (fibroids): decrease the size of fibroids and related symptoms

CC(=O)O[C@]1(C(C)=O)CC[C@H]2[C@@H]3CCC4=CC(=O)CCC4=C3[C@@H](c3ccc(N(C)C)cc3)C[C@@]21C [Ulipristal Acetate]
≤2 ml, indicating Amenorrhea - (%), EoT 13 Weeks ([1]; 13 weeks): 75%
≤2 ml, indicating Amenorrhea - no./total no., EoT 13 Weeks ([1]; 13 weeks): 70/93
Amenorrhea (<2 ml) at EoT (%) 12 Weeks ([1]; data from Jacques Donnez et al): ~75%

COCC(=O)[C@@]1(OC(C)=O)CC[C@H]2[C@@H]3CCC4=CC(=O)CCC4=C3[C@@H](c3ccc(N(C)C)cc3)C[C@@]21C [CDB-4124]
Endometrium during treatment (endometrium): substantial thickening of the endometrium
